One block for each compound: values may come before it.
What was measured:
Heparanase [1] = molecular target: T1, Heparanase (Homo sapiens, UniProt Q9Y251); experiment: Inhibition of human HPSE assessed as residual amount of heparin using porcine heparin as substrate preincubated for 5 mins followed by substrate addition and measured after 15 mins by spectrophotometric analysis
T1 sequence (Q9Y251 whole entry): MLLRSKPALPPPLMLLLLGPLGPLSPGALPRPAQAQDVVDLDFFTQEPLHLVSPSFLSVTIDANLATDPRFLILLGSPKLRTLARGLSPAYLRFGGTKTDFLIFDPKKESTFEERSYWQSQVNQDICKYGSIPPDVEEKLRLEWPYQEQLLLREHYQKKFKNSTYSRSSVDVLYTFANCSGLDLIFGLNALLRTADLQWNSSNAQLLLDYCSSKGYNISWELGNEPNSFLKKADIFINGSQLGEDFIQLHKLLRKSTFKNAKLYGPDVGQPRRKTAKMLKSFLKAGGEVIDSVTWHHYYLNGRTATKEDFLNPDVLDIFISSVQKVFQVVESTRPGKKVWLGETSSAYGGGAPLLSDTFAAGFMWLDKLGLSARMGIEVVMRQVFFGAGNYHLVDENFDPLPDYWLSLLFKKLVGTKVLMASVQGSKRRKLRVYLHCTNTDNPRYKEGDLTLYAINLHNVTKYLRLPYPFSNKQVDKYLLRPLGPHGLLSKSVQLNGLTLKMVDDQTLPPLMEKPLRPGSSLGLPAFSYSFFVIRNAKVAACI

B16-F10 = experiment: Inhibition of cell migration in mouse B16-F10 cells by wound healing assay
[2] = Antiangiogenic activity in VEGF-stimulated human endothelial cells assessed as inhibition of cell growth and measured after 11 days by immunohistochemical staining based analysis; conditions: 264 h
Heparanase [3] = molecular target: T1, Heparanase; experiment: Inhibition of HPSE (unknown origin)
HT-1080 [4] = experiment: Antimigratory activity against human HT-1080 cells assessed as inhibition of cell migration
HT-1080 [5] = experiment: Anti-invasive activity against human HT-1080 cells assessed as inhibition of cell invasive
[6] = Antiangiogenic activity in bFGF-stimulated human microvascular endothelial cells assessed as inhibition of cell growth incubated for 72 hrs; format: functional, cell-based, Cardiac microvascular endothelial cell
[7] = Antiproliferative activity against mouse Lewis lung carcinoma cell line assessed as reduction in cell proliferation by MTT assay; format: functional, cell-based
HepG2 [8] = experiment: Antiproliferative activity against human HepG2 assessed as reduction in cell proliferation by MTT assay; format: functional, cell-based
[9] = Anti-invasive activity against mouse Lewis lung carcinoma cell line assessed as inhibition of cell invasion incubated for 24 hrs by transwell assay; format: functional, cell-based
HepG2 [10] = experiment: Anti-invasive activity against human HepG2 assessed as inhibition of cell invasion incubated for 48 hrs by transwell assay; format: functional, cell-based; conditions: HepG2, 48 h
[11] = Antimigratory activity against mouse Lewis lung carcinoma cell line assessed as inhibition of cell migration incubated for 24 hrs by Wound healing assay; format: functional, cell-based
HepG2 [12] = experiment: Antimigratory activity against human HepG2 assessed as inhibition of cell migration incubated for 48 hrs by Wound healing assay; format: functional, cell-based; conditions: HepG2, 48 h

SMILES: O=C(O)c1ccc2c(c1)C(=O)N(c1cccc(-c3nc4ccccc4o3)c1)C2=O
- IC50 [2]: 40 µM

SMILES: CCCCCCCCCCCCCCCC(=O)C1=C(OC(C)C)[C@@H](CO)OC1=O
- IC50 (Heparanase [3]): > 100 µM

SMILES: CCCCCCCCCCCCCCCC(=O)C1=C(OCc2ccccc2)[C@@H](CO)OC1=O
- IC50 (HT-1080 [4]): 3 µM
- IC50 (HT-1080 [5]): 3 µM

SMILES: Cc1ccc(C(=O)Nc2ccc(S(=O)(=O)O)c3cc(S(=O)(=O)O)cc(S(=O)(=O)O)c23)cc1NC(=O)c1cccc(NC(=O)Nc2cccc(C(=O)Nc3cc(C(=O)Nc4ccc(S(=O)(=O)O)c5cc(S(=O)(=O)O)cc(S(=O)(=O)O)c45)ccc3C)c2)c1 [SURAMIN]
- IC50 [6]: 0.538 µM

SMILES: Oc1c(I)cc(I)cc1-c1nn2c(-c3ccccc3)nnc2s1
- IC50 [7]: 11.9 µM
- IC50 (HepG2 [8]): 8.3 µM
- IC50 [9]: 5 µM
- IC50 (HepG2 [10]): 5 µM
- IC50 [11]: 5 µM
- IC50 (HepG2 [12]): 5 µM

Further lines, results first:

- IC50 (Heparanase [1]): 3 µM
- IC50 (B16-F10): 15 µM
SMILES: CCCCCCCCCCCCCCCc1cc(O[C@@H]2O[C@H](C(=O)O)[C@@H](O)[C@H](O)[C@H]2O)cc(O)c1C(=O)Oc1cc(C)c(C(=O)O)c(O)c1

- IC50 (B16-F10): 30 µM
SMILES: CCCCCCCCCCCCCCCc1cc(O[C@@H]2O[C@H](C(=O)OC)[C@@H](O)[C@H](O)[C@H]2O)cc(O)c1C(=O)Oc1cc(C)c(C(=O)O)c(O)c1

- IC50 (Heparanase [3]): > 100 µM
SMILES: CCCCCCCCCCCCCCCC(=O)C1=C(OC)[C@@H](CO)OC1=O
